From patent publication EP0831093A1, “1-Carba-(dethia)-Cephalosporin Derivatives” (F. HOFFMANN-LA ROCHE AG, priority 1996, dated 1998)
In brackets after ≈: the same amount, converted by molar mass. Counter-ions that a name gives are not always drawn. Like-named read-outs stand apart in the source and are kept apart here.

Tests used:
Experiment in all cases: MIC, agar dilution method in Mueller Hinton agar
Format in all cases: cell-based
[1] = system: E.coli TEM1; conditions: Escherichia coli
Description: (§1) In vitro activity was determined by minimum inhibitory concentration in a microorganism spectum by the agar dilution method in Mueller Hinton agar, inoculum = 10^4 CFU/spot.

[2] = system: S.pneumoniae. 907; conditions: Streptococcus pneumoniae
Description: as §1

[3] = system: P.mirabilis 2117; conditions: Proteus mirabilis
Description: as §1

[4] = system: E.coli 25922; conditions: Escherichia coli
Description: as §1

[5] = system: P.aeruginosa ATCC27853; conditions: Pseudomonas aeruginosa
Description: as §1

[6] = system: P.vulgaris 1028; conditions: Proteus vulgaris
Description: as §1

[7] = system: E.faecalis 6; conditions: Enterococcus faecalis
Description: as §1

[8] = system: S.aureus 743 (MRSA); conditions: Staphylococcus aureus
Description: as §1

[9] = system: S.marcescens 69438; conditions: Serratia marcescens
Description: as §1

[10] = system: C.freundii 43; conditions: Citrobacter freundii
Description: as §1

[11] = system: C.freundii 902; conditions: Citrobacter freundii
Description: as §1

[12] = system: S.pyogenes b 15; conditions: Streptococcus pyogenes
Description: as §1

[13] = system: K.pneumoniae 418; conditions: Klebsiella pneumoniae
Description: as §1

[14] = system: S.aureus 6538; conditions: Staphylococcus aureus
Description: as §1

[15] = system: E.cloacae 908R; conditions: Enterobacter cloacae
Description: as §1

[16] = system: E.cloacae 908SSi; conditions: Enterobacter cloacae
Description: as §1

[17] = S.pneumoniae. 907, inoculum = 10^4 CFU/spot, read-out: MIC
[18] = P.mirabilis 2117, inoculum = 10^4 CFU/spot, read-out: MIC
[19] = E.coli 25922, inoculum = 10^4 CFU/spot, read-out: MIC
[20] = P.aeruginosa ATCC27853, inoculum = 10^4 CFU/spot, read-out: MIC
[21] = P.vulgaris 1028, inoculum = 10^4 CFU/spot, read-out: MIC
[22] = E.faecalis 6, inoculum = 10^4 CFU/spot, read-out: MIC
[23] = S.aureus 743 (MRSA), inoculum = 10^4 CFU/spot, read-out: MIC
[24] = S.marcescens 69438, inoculum = 10^4 CFU/spot, read-out: MIC
[25] = C.freundii 43, inoculum = 10^4 CFU/spot, read-out: MIC
[26] = C.freundii 902, inoculum = 10^4 CFU/spot, read-out: MIC
[27] = S.pyogenes b 15, inoculum = 10^4 CFU/spot, read-out: MIC
[28] = K.pneumoniae 418, inoculum = 10^4 CFU/spot, read-out: MIC
[29] = S.aureus 6538, inoculum = 10^4 CFU/spot, read-out: MIC
[30] = E.cloacae 908R, inoculum = 10^4 CFU/spot, read-out: MIC
[31] = E.cloacae 908SSi, inoculum = 10^4 CFU/spot, read-out: MIC

Row | Compound | MIC [1] [µg/mL] | MIC [2, 17] [µg/mL] | MIC [3, 18] [µg/mL] | MIC [4, 19] [µg/mL] | MIC [5, 20] [µg/mL] | MIC [6, 21] [µg/mL] | MIC [7, 22] [µg/mL] | MIC [8, 23] [µg/mL] | MIC [9, 24] [µg/mL] | MIC [10, 25] [µg/mL] | MIC [11, 26] [µg/mL] | MIC [12, 27] [µg/mL] | MIC [13, 28] [µg/mL] | MIC [14, 29] [µg/mL] | MIC [15, 30] [µg/mL] | MIC [16, 31] [µg/mL] | further results
1 | C[n+]1cccc(N2CC/C(=C\C3=C(C(=O)[O-])N4C(=O)[C@@H](NC(=O)/C(=N\O)c5csc(N)n5)[C@H]4CC3)C2=O)c1 [C, (6R,7S)-7-[(Z)-2-(2-Amino-thiazol-4-yl)-2-hydroxyimino-acetylamino]-3-[(E)-1-(1-methyl-pyridin-1-ium-3-yl)-2-oxo-pyrrolidin-3-ylidenemethyl]-8-oxo-1-aza-bicyclo[4.2.0]oct-2-ene-2-carboxylate] | ≤ 0.06 | ≤ 0.06 | ≤ 0.06 | ≤ 0.06 | 4 (≈ 7.44 µM) | 16 (≈ 29.8 µM) | 0.5 (≈ 0.93 µM) | 8 (≈ 14.9 µM) | 0.12 (≈ 0.223 µM) | 0.5 (≈ 0.93 µM) | ≤ 0.06 | ≤ 0.06 | ≤ 0.06 | 1 (≈ 1.86 µM) | 2 (≈ 3.72 µM) | ≤ 0.06 | –
2 | Nc1nc(/C(=N/O)C(=O)N[C@@H]2C(=O)N3C(C(=O)[O-])=C(/C=C4\CCN(CC(F)(F)F)C4=O)CC[C@H]23)cs1.[Na+] [A, (6R,7S)-7-[(Z)-2-(2-Amino-thiazol-4-yl)-2-hydroxyimino-acetylamino]-8-oxo-3-[(E)-2-oxo-1-(2,2,2-trifluoro-ethyl)-pyrrolidin-3-ylidenemethyl]-1-aza-bicyclo[4.2.0]oct-2-ene-2-carboxylic acid sodium salt (1:1)] | 0.12 | – | – | – | – | – | – | – | – | – | – | – | – | – | – | – | MIC [2]: ≤ 0.06 µg/mL; MIC [3]; 2117: ≤ 0.06 µg/mL; MIC [4]; 25922: ≤ 0.06 µg/mL; MIC ([5]; ATCC27853): 32 µg/mL; MIC [6]; 1028: > 32 µg/mL; MIC [7]; 6: 8 µg/mL; MIC ([8]; MRSA): 32 µg/mL; MIC [9]; 69438: 2 µg/mL; MIC [10]; 43: 8 µg/mL; MIC [11]; 902: 0.25 µg/mL; MIC [12]; 15: ≤ 0.06 µg/mL; MIC [13]; 418: 0.12 µg/mL; MIC [14]; 6538: 1 µg/mL; MIC ([15]; 908R): > 32 µg/mL; MIC ([16]; 908SSI): 2 µg/mL
3 | C[n+]1cccc(N2CC/C(=C\C3=C(C(=O)[O-])N4C(=O)[C@@H](NC(=O)/C(=N\O)c5nsc(N)n5)[C@H]4CC3)C2=O)c1 [D, (6R,7S)-7-[(Z)-2-(5-Amino-[1,2,4]thiadiazol-3-yl)-hydroxyimino-acetylamino]-3-[(E)-1-(1-methyl-pyridin-1-ium-3-yl)-2-oxo-pyrrolidin-3-ylidenemethyl]-8-oxo-1-aza-bicyclo[4.2.0]oct-2-ene-2-carboxylate] | 0.25 (≈ 0.464 µM) | ≤ 0.06 | 0.12 (≈ 0.223 µM) | 0.06 (≈ 0.111 µM) | 8 (≈ 14.9 µM) | > 32 | 0.25 (≈ 0.464 µM) | 8 (≈ 14.9 µM) | 0.12 (≈ 0.223 µM) | 0.5 (≈ 0.928 µM) | ≤ 0.06 | ≤ 0.06 | ≤ 0.06 | 0.5 (≈ 0.928 µM) | 1 (≈ 1.86 µM) | 0.12 (≈ 0.223 µM) | –
4 | C[n+]1ccc(N2CC/C(=C\C3=C(C(=O)[O-])N4C(=O)[C@@H](NC(=O)/C(=N\OC5CCCC5)c5csc(N)n5)[C@H]4CC3)C2=O)cc1 [G, (6R,7S)-7-[(Z)-2-(2-Amino-thiazol-4-yl)-2-cyclopentyloxyimino-acetylamino]-3-[(E)-1-(1-methyl-pyridin-1-ium-4-yl)-2-oxo-pyrrolidin-3-ylidenemethyl]-8-oxo-1-aza-bicyclo[4.2.0]oct-2-ene-2-carboxylate] | 0.5 (≈ 0.826 µM) | ≤ 0.06 | 1 (≈ 1.65 µM) | ≤ 0.06 | 4 (≈ 6.6 µM) | 16 (≈ 26.4 µM) | 1 (≈ 1.65 µM) | 32 (≈ 52.8 µM) | 0.5 (≈ 0.826 µM) | 1 (≈ 1.65 µM) | ≤ 0.06 | ≤ 0.06 | 0.25 (≈ 0.413 µM) | 2 (≈ 3.3 µM) | 2 (≈ 3.3 µM) | ≤ 0.06 | –
5 | Nc1nc(/C(=N/O)C(=O)N[C@@H]2C(=O)N3C(C(=O)O)=C(/C=C4\CCN(c5ccc(O)cc5)C4=O)CC[C@H]23)cs1 [B, (6R,7S)-7-[(Z)-2-(Amino-thiazol-4-yl)-2-hydroxyimino-acetylamino]-3-[(E)-1-(4-hydroxy-phenyl)-2-oxo-pyrrolidin-3-ylidenemethyl]-8-oxo-1-aza-bicyclo[4.2.0]oct-2-ene-2-carboxylic acid sodium salt (1:1)] | 0.12 | ≤ 0.06 | – | 0.25 | 32 | > 32 | 4 | 32 | 4 | 32 | 0.5 | ≤ 0.06 | 0.12 | 1 | > 32 | 0.5 | –
6 | C[n+]1cccc(N2CC/C(=C\C3=C(C(=O)[O-])N4C(=O)[C@@H](NC(=O)/C(=N\OCC(=O)O)c5csc(N)n5)[C@H]4CC3)C2=O)c1 [F, (6R,7S)-7-[(Z)-2-(2-Amino-thiazol-4-yl)-2-carboxymethoxyimino-acetylamino]-3-[(E)-1-(1-methyl-pyridin-1-ium-3-yl)-2-oxo-pyrrolidin-3-ylidenemethyl]-8-oxo-1-aza-bicyclo[4.2.0]oct-2-ene-2-carboxylate Na salt (1:1)] | ≤ 0.06 | ≤ 0.06 | ≤ 0.06 | ≤ 0.06 | 1 | 0.12 | > 32 | > 32 | ≤ 0.06 | 2 | ≤ 0.06 | 0.12 | ≤ 0.06 | 32 | 4 | ≤ 0.06 | –
7 | C[n+]1cccc(N2CC/C(=C\C3=C(C(=O)[O-])N4C(=O)[C@@H](NC(=O)/C(=N\OC5CCCC5)c5nsc(N)n5)[C@H]4CC3)C2=O)c1 [E, (6R,7S)-7-[(Z)-2-(5-Amino-[1,2,4]thiadiazol-3-yl)-cyclopentyloximino-acetylamino]-3-[(E)-1-(1-methyl-pyridin-1-ium-3-yl)-2-oxo-pyrroliden-3-ylidenemethyl]-8-oxo-1-aza-bicyclo[4.2.0]oct-2-ene-2-carboxylate] | 1 (≈ 1.65 µM) | ≤ 0.06 | 2 (≈ 3.3 µM) | ≤ 0.06 | 8 (≈ 13.2 µM) | 32 (≈ 52.7 µM) | 1 (≈ 1.65 µM) | 4 (≈ 6.59 µM) | 1 (≈ 1.65 µM) | 0.5 (≈ 0.824 µM) | ≤ 0.06 | ≤ 0.06 | 0.25 (≈ 0.412 µM) | 0.5 (≈ 0.824 µM) | 0.5 (≈ 0.824 µM) | ≤ 0.06 | –
